Laboratory results: US20250127857A1, “A COMPOSITION COMPRISING IL-36 AND/OR IL-18 FOR USE IN TREATING OCULAR DISORDERS” (THE PROVOST, FELLOWS, FOUNDATION SCHOLARS, & THE OTHER …, priority 2021, published 2025)
pKd: −log10 of the molar value.

Columns and labels:
[1] = test system: bone marrow derived MSCs; experiment: Bone marrow derived mesenchymal stem cell activation (confocal microscopy); format: cell-based, mouse; conditions: IL-18 250 ng/ml, 8 h
Procedure: FIG. 21 illustrates IL-18 activates bone marrow derived mesenchymal stem cells, wherein bone marrow derived MSC's were treated with IL-18 at 250 ng/ml for 8 h and images using confocal microscopy, wherein cells were stained with phalloidin for F-actin, vimentin, smooth muscle actin (SMA) and collagen 1;
The femurs from mice were isolated and, using a 20 ml syringe, the bones were flushed with DMEM into a cell culture dish. The flushings were centrifuged for 5 minutes at 1000 rpm. The supernatant was poured off and resuspended in 1 ml of 15% FBS and aMEM media, and filtered through a 70 um nylon mesh into a 50 ml captube. A further 5 ml of 15% FBS and aMEM were added through the mesh tube into the same 50 ml cap tube, and plated in a TC coated dish and cultured in an incubator for 5 days. On Day 5, the dish was washed with PBS 3 times (using PBS with no magnesium or calcium),trypsinized and the trypsin pipetted onto the plate to break up the colonies. 10mis of 10% FBS and DMEM were added and the cells collected in a 50 ml cap tube and this process was repeated once more, centrifuged for 5 mins at 1000 rpm, supernatant poured off, cells resuspended in 1 ml of DMEM and 20% FBS, and plated in a T75 and fed every second day until cells were confluent. When cells were confluent, they were split 1 in 3.

[2] = molecular target: T1, IL-18BP (Homo sapiens, UniProt O95998); conditions: 1:1 stoichiometry; used for free IL-18 calculation (Migliorini et al., 2010); read-out: dissociation constant (Kd) of the IL-18/IL-18BP complex; cited from earlier work
T1 sequence (O95998 31-194): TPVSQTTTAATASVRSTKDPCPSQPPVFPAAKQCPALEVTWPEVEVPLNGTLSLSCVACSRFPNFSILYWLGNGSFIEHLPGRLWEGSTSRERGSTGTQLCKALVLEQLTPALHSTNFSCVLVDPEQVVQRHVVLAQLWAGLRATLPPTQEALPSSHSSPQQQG

IL-18: recombinant human IL-18 (SB-485232; GSK)
appearance of vimentin and SMA in MSCs [1]: strong effect on the appearance of vimentin and SMA
collagen in MSCs [1]: increased collagen in MSCs
pKd [2]: 9.40
